Target: VEGFR-2 kinase (Homo sapiens (Human), UniProt P35968)
Test: Assay of small molecular compounds for inhibiting the activity of VEGFR-2 kinase (LANCE TR-FRET)
Assay type: biochemical
Details: read-out: VEGFR2 IC50
Summary of the method: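 LANCE TR-FRET with human VEGFR-2 (2× stock 0.5 nM) preincubated 30 min with compound (final 2500 to 0.042 nM, 11-point 3-fold), then ULight-JAK-1 (Tyr1023) peptide/ATP added (4× stocks 200 nM/40 μM). Reaction 60 min room temperature, 4% DMSO; IC50 from inhibition-rate curve.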

VEGFR-2 kinase, sequence (P35968 20-1356): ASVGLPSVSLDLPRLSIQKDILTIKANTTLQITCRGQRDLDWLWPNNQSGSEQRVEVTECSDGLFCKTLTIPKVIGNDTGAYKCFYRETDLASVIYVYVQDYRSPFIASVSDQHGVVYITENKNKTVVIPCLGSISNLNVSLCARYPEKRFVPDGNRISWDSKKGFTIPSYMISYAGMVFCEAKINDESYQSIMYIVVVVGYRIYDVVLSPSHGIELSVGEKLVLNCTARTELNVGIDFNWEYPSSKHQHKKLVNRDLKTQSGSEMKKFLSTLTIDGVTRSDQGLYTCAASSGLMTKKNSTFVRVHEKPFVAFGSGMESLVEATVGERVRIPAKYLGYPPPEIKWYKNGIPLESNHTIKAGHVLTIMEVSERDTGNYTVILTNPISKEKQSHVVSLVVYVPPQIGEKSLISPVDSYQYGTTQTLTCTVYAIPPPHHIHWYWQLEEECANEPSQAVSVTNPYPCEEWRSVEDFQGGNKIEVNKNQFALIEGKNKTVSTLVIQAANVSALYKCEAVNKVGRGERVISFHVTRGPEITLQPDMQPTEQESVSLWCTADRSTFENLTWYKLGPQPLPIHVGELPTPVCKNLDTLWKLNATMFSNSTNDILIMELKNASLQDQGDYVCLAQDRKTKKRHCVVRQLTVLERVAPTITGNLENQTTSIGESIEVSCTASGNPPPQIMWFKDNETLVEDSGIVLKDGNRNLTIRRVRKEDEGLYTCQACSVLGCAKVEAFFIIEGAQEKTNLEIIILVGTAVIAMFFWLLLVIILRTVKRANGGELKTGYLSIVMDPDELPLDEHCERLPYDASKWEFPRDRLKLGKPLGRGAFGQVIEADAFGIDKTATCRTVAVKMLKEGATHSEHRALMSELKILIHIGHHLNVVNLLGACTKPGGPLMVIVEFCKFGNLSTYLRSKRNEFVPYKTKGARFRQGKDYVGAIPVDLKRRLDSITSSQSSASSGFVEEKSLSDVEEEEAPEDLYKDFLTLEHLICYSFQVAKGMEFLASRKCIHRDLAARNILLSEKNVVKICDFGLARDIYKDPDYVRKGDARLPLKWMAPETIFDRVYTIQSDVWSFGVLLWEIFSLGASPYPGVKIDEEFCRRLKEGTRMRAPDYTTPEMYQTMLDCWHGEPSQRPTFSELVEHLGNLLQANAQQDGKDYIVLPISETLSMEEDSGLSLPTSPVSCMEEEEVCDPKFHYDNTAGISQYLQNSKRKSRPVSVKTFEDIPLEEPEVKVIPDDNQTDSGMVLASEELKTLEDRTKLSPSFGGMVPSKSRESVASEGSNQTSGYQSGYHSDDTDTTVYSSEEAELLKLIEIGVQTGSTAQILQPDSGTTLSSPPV

Compound	IC50 [nM]
CCOc1ccn(-c2ccc(F)cc2)c(=O)c1C(=O)Nc1ccc(Oc2ccnc3cc(OCCCN4CCOCC4)c4c(c23)OCCO4)c(Cl)c1 [Example 72, N-(4-((5-(3-morpholinopropoxy)-2,3-dihydro-[1,4]dioxino[2,3-f]quinolin-10-yl)oxy)-3-chlorophenyl)-4-ethoxy-1-(4-fluorophenyl)-2-oxo-1,2-dihydropyridine-3-carboxamide]	≤ 50
CCOc1ccn(-c2ccc(F)cc2)c(=O)c1C(=O)Nc1ccc(Oc2ccnc3cc(OCCCO)c4c(c23)OCCO4)c(F)c1 [Example 54, N-(4-((5-(3-hydroxypropoxy)-2,3-dihydro-[1,4]dioxino[2,3-f]quinolin-10-yl)oxy)-3-fluorophenyl)-4-ethoxy-1-(4-fluorophenyl)-2-oxo-1,2-dihydropyridine-3-carboxamide]	≤ 50
CCOc1ccn(-c2ccc(F)cc2)c(=O)c1C(=O)Nc1ccc(Oc2ccnc3cc(OCCCN4CCN(C(C)=O)CC4)c4c(c23)OCCO4)c(F)c1 [Example 50, N-(4-((5-(3-(4-acetyl-piperazin-1-yl)propoxy)-2,3-dihydro-[1,4]dioxino[2,3-f]quinolin-10-yl)oxy)-3-fluorophenyl)-4-ethoxy-1-(4-fluorophenyl)-2-oxo-1,2-dihydropyridine-3-carboxamide]	≤ 50
CC(C)Oc1cc2nccc(Oc3ccc(NC(=O)c4cn(C)c(=O)n(-c5ccc(F)cc5)c4=O)cc3F)c2c2c1OCCO2 [Example 88, N-(3-fluoro-4-((5-isopropoxy-2,3-dihydro-[1,4]dioxino[2,3-f]quinolin-10-yl)oxy)phenyl)-3-(4-fluorophenyl)-1-methyl-2,4-dioxo-1,2,3,4-tetrahydropyrimidine-5-carboxamide]	500 to 5000
CCOc1cc2nccc(Oc3ccc(NC(=O)c4c(OCC)ccn(-c5ccc(F)cc5)c4=O)cc3F)c2c2c1OCCO2 [Example 62, N-(4-((5-ethoxy-2,3-dihydro-[1,4]dioxino[2,3-f]quinolin-10-yl)oxy)-3-fluorophenyl)-4-ethoxy-1-(4-fluorophenyl)-2-oxo-1,2-dihydropyridine-3-carboxamide]	≤ 50
CCOc1ccn(-c2ccc(F)cc2)c(=O)c1C(=O)Nc1ccc(Oc2ccnc3cc(OCCCN4CCN(C)CC4)c4c(c23)OCCO4)c(F)c1 [Example 49, N-(3-fluoro-4-((5-(3-(4-methylpiperazin-1-yl)propoxy)-2,3-dihydro-[1,4]dioxino[2,3-f]quinolin-10-yl)oxy)phenyl)-1-(4-fluorophenyl)-4-ethoxy-2-oxo-1,2-dihydropyridine-3-carboxamide]	≤ 50
CCOc1ccn(-c2ccc(F)cc2)c(=O)c1C(=O)Nc1ccc(Oc2ccnc3cc(OCC#N)c4c(c23)OCCO4)c(F)c1 [Example 56, N-(4-((5-(cyanomethoxy)-2,3-dihydro-[1,4]dioxino[2,3-f]quinolin-10-yl)oxy)-3-fluorophenyl)-4-ethoxy-1-(4-fluorophenyl)-2-oxo-1,2-dihydropyridine-3-carboxamide]	50 to 500
CCOc1ccn(-c2ccc(F)cc2)c(=O)c1C(=O)Nc1ccc(Oc2ccnc3cc(OCCCN(C)CCOC)c4c(c23)OCCO4)c(F)c1 [Example 70, N-(4-((5-(3-((2-methoxyethyl)(methyl)amino)propoxy)-2,3-dihydro-[1,4]dioxino[2,3-f]quinolin-10-yl)oxy)-3-fluorophenyl)-4-ethoxy-1-(4-fluorophenyl)-2-oxo-1,2-dihydropyridine-3-carboxamide]	≤ 50
COc1cn(-c2ccc(F)cc2C)nc1C(=O)Nc1ccc(Oc2ncnc3cc(OCCCN4CCOCC4)c4c(c23)OCCO4)c(F)c1 [Example 11, 1-(4-fluoro-2-methylphenyl)-N-(3-fluoro-4-((5-(3-morpholinopropoxy)-2,3-dihydro-[1,4]dioxino[2,3-f]quinazolin-10-yl)oxy)phenyl)-4-methoxy-1H-pyrazole-3-carboxamide]	50 to 500
CCOc1ccn(-c2ccc(F)cc2)c(=O)c1C(=O)Nc1ccc(Oc2ncnc3cc(OC)c4c(c23)OCCO4)c(F)c1 [Example 3, N-(3-fluoro-4-((5-methoxy-2,3-dihydro-[1,4]dioxino[2,3-f]quinazolin-10-yl)oxy)phenyl)-1-(4-fluorophenyl)-4-ethoxy-2-oxo-1,2-dihydropyridine-3-carboxamide]	50 to 500
CCOc1ccn(-c2ccc(F)cc2)c(=O)c1C(=O)Nc1ccc(Oc2ccnc3cc(OC4CCOC4)c4c(c23)OCCO4)c(F)c1 (centres unmarked) [Example 65, N-(4-((5-((tetrahydrofuran-3-yl)oxy)-2,3-dihydro-[1,4]dioxino[2,3-f]quinolin-10-yl)oxy)-3-fluorophenyl)-4-ethoxy-1-(4-fluorophenyl)-2-oxo-1,2-dihydropyridine-3-carboxamide]	50 to 500
COc1cc2nccc(Oc3ccc(NC(=O)c4cn(CCO)c(=O)n(-c5ccc(F)cc5)c4=O)cc3F)c2c2c1OCCO2 [Example 45, N-(3-fluoro-4-((5-methoxy-2,3-dihydro-[1,4]dioxino[2,3-f]quinolin-10-yl)oxy)phenyl)-3-(4-fluorophenyl)-1-(2-hydroxyethyl)-2,4-dioxo-1,2,3,4-tetrahydropyrimidine-5-carboxamide]	500 to 5000

Now from value to compound:

IC50 [nM]	Compound
50 to 500	COc1cc2ncnc(Oc3ccc(NC(=O)c4c(OC)ccn(-c5ccc(F)cc5)c4=O)cc3F)c2c2c1OCCO2 [Example 2, N-(3-fluoro-4-((5-methoxy-2,3-dihydro-[1,4]dioxino[2,3-f]quinazolin-10-yl)oxy)phenyl)-1-(4-fluorophenyl)-4-methoxy-2-oxo-1,2-dihydropyridine-3-carboxamide]
50 to 500	Cn1cc(C(=O)Nc2ccc(Oc3ccnc4cc(OC5CCOCC5)c5c(c34)OCCO5)c(F)c2)c(=O)n(-c2ccc(F)cc2)c1=O [Example 91, N-(3-fluoro-4-((5-((tetrahydropyran-4-yl)oxy)-2,3-dihydro-[1,4]dioxino[2,3-f]quinolin-10-yl)oxy)phenyl)-3-(4-fluorophenyl)-1-methyl-2,4-dioxo-1,2,3,4-tetrahydropyrimidine-5-carboxamide]
≤ 50	CCOc1ccn(-c2ccc(F)cc2)c(=O)c1C(=O)Nc1ccc(Oc2ccnc3cc(OCCCC#N)c4c(c23)OCCO4)c(F)c1 [Example 57, N-(4-((5-(3-cyanopropoxy)-2,3-dihydro-[1,4]dioxino[2,3-f]quinolin-10-yl)oxy)-3-fluorophenyl)-4-ethoxy-1-(4-fluorophenyl)-2-oxo-1,2-dihydropyridine-3-carboxamide]
≤ 50	CCOc1ccn(-c2ccc(F)cc2)c(=O)c1C(=O)Nc1ccc(Oc2ccnc3cc(OCC(C)C)c4c(c23)OCCO4)c(F)c1 [Example 58, N-(4-((5-(isobutyloxy)-2,3-dihydro-[1,4]dioxino[2,3-f]quinolin-10-yl)oxy)-3-fluorophenyl)-4-ethoxy-1-(4-fluorophenyl)-2-oxo-1,2-dihydropyridine-3-carboxamide]
500 to 5000	CC(C)n1cc(C(=O)Nc2ccc(Oc3ccnc4cc(OCCCN5CCC(C)(C)CC5)c5c(c34)OCCO5)c(F)c2)c(=O)n(-c2ccc(F)cc2)c1=O [Example 92, N-(3-fluoro-4-((5-(3-(4,4-dimethylpiperidin-1-yl)propoxy)-2,3-dihydro-[1,4]dioxino[2,3-f]quinolin-10-yl)oxy)phenyl)-3-(4-fluorophenyl)-1-isopropyl-2,4-dioxo-1,2,3,4-tetrahydropyrimidine-5-carboxamide]
50 to 500	CC(C)n1cc(C(=O)Nc2ccc(Oc3ccnc4cc(OCCCN5CCC(C)(N)CC5)c5c(c34)OCCO5)c(F)c2)c(=O)n(-c2ccc(F)cc2)c1=O [Example 93, N-(3-fluoro-4-((5-(3-(4-amino-4-methylpiperidin-1-yl)propoxy)-2,3-dihydro-[1,4]dioxino[2,3-f]quinolin-10-yl)oxy)phenyl)-3-(4-fluorophenyl)-1-isopropyl-2,4-dioxo-1,2,3,4-tetrahydropyrimidine-5-carboxamide]
≤ 50	CCOc1ccn(-c2ccc(F)cc2)c(=O)c1C(=O)Nc1ccc(Oc2ccnc3cc(OCCCN4CCC(C)(C)CC4)c4c(c23)OCCO4)c(F)c1 [Example 67, N-(4-((5-(3-(4,4-dimethylpiperidin-1-yl)propoxy)-2,3-dihydro-[1,4]dioxino[2,3-f]quinolin-10-yl)oxy)-3-fluorophenyl)-4-ethoxy-1-(4-fluorophenyl)-2-oxo-1,2-dihydropyridine-3-carboxamide]
≤ 50	CCOc1ccn(-c2ccc(F)cc2)c(=O)c1C(=O)Nc1ccc(Oc2ccnc3cc(OCCCN4CCC(C)(N)CC4)c4c(c23)OCCO4)c(F)c1 [Example 68, N-(4-((5-(3-(4-amino-4-methylpiperidin-1-yl)propoxy)-2,3-dihydro-[1,4]dioxino[2,3-f]quinolin-10-yl)oxy)-3-fluorophenyl)-4-ethoxy-1-(4-fluorophenyl)-2-oxo-1,2-dihydropyridine-3-carboxamide]
50 to 500	CCOc1ccn(-c2ccc(F)cc2)c(=O)c1C(=O)Nc1ccc(Oc2ccnc3cc(OC4COC4)c4c(c23)OCCO4)c(F)c1 [Example 64, N-(4-((5-((oxetan-3-yl)oxy)-2,3-dihydro-[1,4]dioxino[2,3-f]quinolin-10-yl)oxy)-3-fluorophenyl)-4-ethoxy-1-(4-fluorophenyl)-2-oxo-1,2-dihydropyridine-3-carboxamide]
≤ 50	CCOc1ccn(-c2ccc(F)cc2)c(=O)c1C(=O)Nc1ccc(Oc2ccnc3cc(OCCCN(C)C4CCC4)c4c(c23)OCCO4)c(F)c1 [Example 71, N-(4-((5-(3-(cyclobutyl(methyl)amino)propoxy)-2,3-dihydro-[1,4]dioxino[2,3-f]quinolin-10-yl)oxy)-3-fluorophenyl)-4-ethoxy-1-(4-fluorophenyl)-2-oxo-1,2-dihydropyridine-3-carboxamide]
≤ 50	CCOc1ccn(-c2ccc(F)cc2)c(=O)c1C(=O)Nc1ccc(Oc2ccnc3cc(OCCCN4CCC(C)(O)CC4)c4c(c23)OCCO4)c(F)c1 [Example 69, N-(4-((5-(3-(4-hydroxy-4-methylpiperidin-1-yl)propoxy)-2,3-dihydro-[1,4]dioxino[2,3-f]quinolin-10-yl)oxy)-3-fluorophenyl)-4-ethoxy-1-(4-fluorophenyl)-2-oxo-1,2-dihydropyridine-3-carboxamide]

— US12202835B2, “Substituted aromatic ring-linked dioxinoquinazolines and dioxinoquinolines as kinase inhibitors” (BEIJING SCITECH-MQ PHARMACEUTICALS LIMITED, priority 2018, dated 2025)
